This note sets out measurements from EP3597650B1, “ALDOSE REDUCTASE INHIBITORS AND USES THEREOF” (The Trustees of Columbia University in the City of New York, priority 2010, dated 2012).

Data set [1] in a line: Solubility in Krebs-Henseleit buffer. To be noted: Krebs-Henseleit buffer with glucose, palmitate, bovine serum albumin, insulin. The class given is physicochemical.
Data set [2] concerns the target human recombinant aldose reductase (Homo sapiens, UniProt P15121). Description: biochemical. The procedure:
The rcductasc activity of Compound A and zopolrestat were spectrophotometrically assayed by following the decrease of NADPH at 25°C for 4 min as described in Sato, S. (1992), "Rat kidney aldose reductase and aldehyde reductase and polyolproduction in rat kidney" Am. J. Physiol. 263, F799.F805, incorporated by reference herein in its entirety. [drawing 59]
Briefly, the reaction mixture (total volume 1 ml) contained 0.1 mM NADPH, 100 mM substrate (DL-glyceraldehyde or L-xylose) and human recombinant aldose reductase (100 mU) in 0.1 M phosphate buffer, pH 6.2. The head to head experiment was carried out in a microplate assay for AR inhibition using D-Glyceraldehyde and NADPH and the absorbance changes were monitored at 340nm and % inhibition was calculated for ARIs at concentrations ranging from 0.1 nM to 100 µM (Table 2 and Figure 2). Data is presented as mean ± standard deviation and is an average of 5 separate runs. The reaction was started by adding the substrate (glyceraldehyde or xylose) as well as the same reaction mixture in which the substrate replaced by deionized water was used as a control. One enzyme unit (U) was defined as the activity consuming 1 µmole of NADPH per min at 25 °C. Table 2. Aldose Reductase Activity for Zopolrestat and Compound A.

A further data set has as its system isolated rat heart. Kind of data set: Ex vivo isovolumic isolated rat heart, ischemia reperfusion (I/R) injury. To be noted: 100 nM in perfusate; 20 min zero-flow ischemia, 60 min reperfusion. The procedure:
Experiments were performed using an isovolumic isolated rat heart preparation as as described by Hwang YC, Sato S, Tsai JY, Yan S, Bakr S, Zhang H, Oates PJ , Ramasamy R (2002), "Aldose reductase activation is a key component of myocardial response to ischemia," Faseb J. 16, 243-245 and Ramasamy R, Hwang YC, Whang J , Bergmann SR (2001), "Protection of ischemic hearts by high glucose is mediated, in part, by GLUT-4," American Journal of Physiology. 281, H290-297.
Male Wistar rats (300.350 g, 3 to 4 months old) were anesthetized with a mixture of ketamine (80 mg/kg) and xylazine (10 mg/kg). After deep anesthesia was achieved, hearts were rapidly excised, placed into iced saline, and retrogradely perfused at 37 °C in a non-recirculating mode through the aorta at a rate of 12.5 ml/min. Hearts were perfused with modified Krebs-Henseleit buffer containing (in mM) NaCl 118, KCl 4.7, CaCl2 2.5, MgCl2 1.2, NaHCO3 25, glucose 5, palmitate 0.4, bovine serum albumin 0.4, and 70 mU/L insulin. […] Left ventricular developed pressure (LVDP) and left ventricular end diastolic pressure (LVEDP) were measured using a latex balloon in the left ventricle. LVDP, heart rate, and coronary perfusion pressure were monitored continuously on a ADI recorder. […]
Briefly, isolated perfused hearts were subjected to ischemia reperfusion (I/R) injury and the measures of cardiac injury and cardiac function monitored. […]

Data set [3] in a line: Solubility in water, LC-MS absorbance peak area at 254 nm. As to conditions: for Area (Integration of Absorbance Peaks): water pH 7.1, ambient temperature, 254 nm. The data set is classed as physicochemical. The procedure: Each sample of Compound A & zopolrestat were placed, separately, in water (MQW ultra nanopure) at ambient temperature and vortexed for 3 minutes. The aliquots were then filtered through a tightly-packed cotton plug (placed in a pipette) to remove any residual solids. The attempted concentrations of the respective solutions of Compound A and zopolrestat made were 0.05 mg/mL, 0.1 mg/mL, 0.5 mg/mL, 1.0 mg/mL, 5.0 mg/mL, and 10.0 mg/mL. The pH of the water used was 7.1 (measured electronically by an Orion perpHect LogR Meter Model # 370).
The filtered samples were run through a binary gradient (program: 5%-100% MeCN over 30 mins) on a LC-MS (Shimadzu LCMS-2010A Liquid Chromatography Mass Spectrometer, reverse-phase column). A 5 µL volume of each sample solution was injected for each run. Each trace contained a peak (for Compound A, TR approx. 14.070 mins; for zopolrestat, TR approx. 16.666 mins) measured at a wavelength of 254 nm for which the respective parent ion masses were observed.
By comparing the absorbance areas under the peaks corresponding to Compound A & zopolrestat in each water solution made (Table 1), a solubility curve for each compound was generated (Fig. 1). […] Table 1. Integration of Absorbance Peaks for Various Concentrations of Compounds.

Setting [4] is: attempted concentration 0.05 mg/mL.
The mark [5] stands for this setting: attempted concentration 0.1 mg/mL.
[6] abbreviates: attempted concentration 0.5 mg/mL.
The mark [7] stands for this setting: attempted concentration 1 mg/mL.
The mark [8] stands for this setting: attempted concentration 5 mg/mL.
Where [9] appears, read: attempted concentration 10 mg/mL.

On to `O=C(O)Cc1nn(Cc2nc3cc(C(F)(F)F)ccc3s2)c(=O)c2nccnc12` [Compound A, 2-(8-oxo-7-((5-(trifluoromethyl)benzo[d]thiazol-2-yl)methyl)-7,8-dihydropyrazino[2,3-d]pyridazin-5-yl)acetic acid], for which the “solubility in Krebs-Henseleit buffer” value in data set [1] is “soluble without ay precipitation or turbidity”. In data set [2], the inhibition – broadly, the relative decrease from the control value, in per cent – at 0.0001 µM was found to be 69 ± 1.3%; the inhibition at 0.001 µM is 79.6 ± 2.4%; the inhibition at 0.01 µM is 80 ± 1.8%; the inhibition at 0.1 µM came out at 89.2 ± 0.7%. For the same molecule, in data set [2], the inhibition at 1 µM was 93.6 ± 2.8%, the inhibition at 10 µM is 95.3 ± 1.1% and the inhibition at 100 µM was found to be 96.2 ± 3.3%. In addition, the “more active than zopolrestat in vitro against aldose reductase” value in data set [2] (fold relative to zopolrestat) was “approximately 100 x”. In addition, in the data set with isolated rat heart, the “CK Release” value is “Compound A treated Rat hearts = 425±63 IU/g wet weight” and the “LVDP Recovery” value is “Compound A Treated Rat Hearts = 76±5 % of pre-ischemic values”. Besides, the “solubility in pH 7.1 water relative to Zopolrestat” value in data set [3] (ambient temperature, all concentrations) was “significantly greater solubility”. Further, the “Area (Integration of Absorbance Peaks)” value in data set [3] (setting [4]) is listed as 1811131. Moreover, the “Area (Integration of Absorbance Peaks)” value in data set [3] (setting [5]) came to 3221003. Further, the “Area (Integration of Absorbance Peaks)” value in data set [3] (setting [6]) was determined as 5814304. The “Area (Integration of Absorbance Peaks)” value in data set [3] (setting [7]) was determined as 10515430. The “Area (Integration of Absorbance Peaks)” value in data set [3] (setting [8]) stood at 17216187. For the same molecule, the “Area (Integration of Absorbance Peaks)” value in data set [3] (setting [9]) was 20397336.
For `O=C(O)Cc1nn(Cc2nc3cc(C(F)(F)F)ccc3s2)c(=O)c2ccccc12` [zopolrestat, reference compound], in data set [1], the “solubility in Krebs-Henseleit buffer” value was “heat was applied to render zopolrestat soluble”. Moreover, in data set [2], the inhibition at 0.0001 µM came out at 31.7 ± 5.1%, the inhibition at 0.001 µM turned out to be 39.3 ± 4.3%, the inhibition at 0.01 µM turned out to be 52.2 ± 1.9% and the inhibition at 0.1 µM was 76.7 ± 2.7%. Moreover, in data set [2], the inhibition at 1 µM came to 86.3 ± 3.6%, the inhibition at 10 µM amounted to 90.1 ± 3.4% and the inhibition at 100 µM was 93.2 ± 3.8%. Moreover, the “Area (Integration of Absorbance Peaks)” value in data set [3] (setting [4]) is 1039247. In addition, in data set [3] (setting [5]), the “Area (Integration of Absorbance Peaks)” value is reported as 1899466. Also, the “Area (Integration of Absorbance Peaks)” value in data set [3] (setting [6]) is recorded as 4304556. Besides, the “Area (Integration of Absorbance Peaks)” value in data set [3] (setting [7]) came to 6129559. Also, the “Area (Integration of Absorbance Peaks)” value in data set [3] (setting [8]) came to 13314544. Also, in data set [3] (setting [9]), the “Area (Integration of Absorbance Peaks)” value is 13362465.
